From US10076505B2, “Inhalation formulations of Treprostinil” (priority 2003, dated 2018)

Key:
rat = details: orally, 1 mg/kg, cited from earlier work
[1] = in vivo; cited from earlier work
sheep [2] = test: Intravenous and aerosolized UT-15 dose response during U44069 induced pulmonary hypertension (Example V); format: in vivo; details: U44069 infused intravenously at 1 ng per kg per min
Description: Sheep were used as the animal model of choice for these experiments for a number of reasons. First is the docile nature of sheep. They will stand quietly in metabolic cages without having to utilize tranquilizing drugs, which have the potential to complicate experimental results. Second, sheep are large enough to allow direct measurement of CO, PPA, PLA, PCV, and PSYS. Sheep are also large enough to allow direct aerosolization of substances into the lung via trachoestomy thereby preventing swallowing of drugs and thus eliminating a possible secondary route of administration of UT-15. Third, sheep can tolerate a great amount of instrumentation with little or no discomfort. Fourth, sheep have been utilized for several years as an animal model of pulmonary arterial hypertension and thus, there is a great amount of historical data with which to compare the results. […] The reasons for using U44069 are that it is a very potent pulmonary vasoconstrictor, its characteristics are very similar to endogenously formed thromboxane A2, and it can be titrated to induce the desired degree of pulmonary vasoconstriction. U44069 was mixed with sterile normal saline immediately prior to being used and was protected from light by wrapping the solution with aluminum foil. The concentration of U44069 was adjusted such that a minimal flow rate of 0.8 ml per min was being infused into the sheep. This was done because more concentrated U44069 would have to be infused at very low rates and often causes “pulses” of U44069 due to the infusion characteristics of roller pumps. The U44069 pulses cause vasoconstriction “spikes” and thus would create induce a non-steady-state. Six yearling sheep (3 males, 3 females; 21-37 kg) were fasted 18-24 hours and initially anesthetized with a short acting barbiturate (thiopental) to allow intubation of the sheep. Halothane gas anesthesia (1.5-2.5%) was then used for the surgical procedures. Via a left thoracotomy, a Transonic blood flow probe was placed around the main pulmonary artery, silastic catheters placed in the main pulmonary artery and left atrium. After approximately 7 days the sheep were reanesthetized and the left carotid artery cannulated, a Cordis Introducer Sheath inserted in the left jugular vein, and a tracheotomy made. The sheep were allowed to recover for another 3-5 days prior to experimentation. These sheep were used to allow measurement of pulmonary arterial pressure (PPA), left atrial pressure (PLA), central venous pressure (PCV), systemic arterial pressure (PSYS), heart rate (HR), and cardiac output (CO) after baseline measurements were made for a minimum of 30 minutes. Two separate experiments were conducted to determine the dose response effects of intravenously infused UT-15 and aerosolized UT-15 during U44069 induced pulmonary hypertension. After a 30 minute baseline was established, U44069 was infused intravenously at a rate of 1 ng per kg per min. For the intravenous administration of UT-15 and after allowing the sheep to achieve a steady-state for 30-60 minutes, a dose-response to intravenous UT-15 was similar to that set forth in Example IV. For the aerosolized administration of UT-15 and after allowing the sheep to achieve a steady-state for 30-60 minutes, a dose-response to intravenous UT-15 was similar to that set forth in Example IV. In each experimental protocol, UT-15 was administered to three sheep for 30 minutes and to the other three sheep for 60 minutes.

sheep [3] = test: Prolonged U44069 intravenous infusion, pulmonary vascular resistance and hemodynamics (Example II); format: in vivo
Description: Sheep were used as the animal model of choice for these experiments for a number of reasons. First is the docile nature of sheep. They will stand quietly in metabolic cages without having to utilize tranquilizing drugs, which have the potential to complicate experimental results. Second, sheep are large enough to allow direct measurement of CO, PPA, PLA, PCV, and PSYS. Sheep are also large enough to allow direct aerosolization of substances into the lung via trachoestomy thereby preventing swallowing of drugs and thus eliminating a possible secondary route of administration of UT-15. Third, sheep can tolerate a great amount of instrumentation with little or no discomfort. Fourth, sheep have been utilized for several years as an animal model of pulmonary arterial hypertension and thus, there is a great amount of historical data with which to compare the results. The agent chosen to induce pulmonary arterial hypertension was a PGH2 analog, U44069 (9,11-dideoxy,9α,11α-epoxymethanoprostaglandin F2α). The reasons for using U44069 are that it is a very potent pulmonary vasoconstrictor, its characteristics are very similar to endogenously formed thromboxane A2, and it can be titrated to induce the desired degree of pulmonary vasoconstriction. U44069 was mixed with sterile normal saline immediately prior to being used and was protected from light by wrapping the solution with aluminum foil. The concentration of U44069 was adjusted such that a minimal flow rate of 0.8 ml per min was being infused into the sheep. This was done because more concentrated U44069 would have to be infused at very low rates and often causes “pulses” of U44069 due to the infusion characteristics of roller pumps. The U44069 pulses cause vasoconstriction “spikes” and thus would create induce a non-steady-state.
Six yearling sheep (3 males, 3 females; 21-37 kg) were fasted 18-24 hours and initially anesthetized with a short acting barbiturate (thiopental) to allow intubation of the sheep. Halothane gas anesthesia (1.5-2.5%) was then used for the surgical procedures. Via a left thoracotomy, a Transonic blood flow probe was placed around the main pulmonary artery, silastic catheters placed in the main pulmonary artery and left atrium. After approximately 7 days the sheep were reanesthetized and the left carotid artery cannulated, a Cordis Introducer Sheath inserted in the left jugular vein, and a tracheotomy made. The sheep were allowed to recover for another 3-5 days prior to experimentation. These sheep were used to allow measurement of pulmonary arterial pressure (PPA), left atrial pressure (PLA), central venous pressure (PCV), systemic arterial pressure (PSYS), heart rate (HR), and cardiac output (CO) after baseline measurements were made for a minimum of 30 minutes.
In four sheep, the ability of U44069 to maintain a steady-state increase in PVR was determined. After a 30 minute baseline, U44069 was infused at a rate of 1 microgram per kg of body weight per minute for 180 minutes. […] In particular, FIG. 9 illustrates that intravenously infused U44069 causes PVR to reach a steady-state increase by 30 minutes and that the steady-state increase lasts for a minimum of 180 minutes. U44069 caused significant alterations in other variables (data not shown) over the 180 minute infusion period relative to their baseline values: PPA increased, HR decreased, CO decreased.

[4] = U44069 iv 1 microgram per kg per minute for 180 minutes, four sheep
[5] = U44069 iv 1 microgram per kg per minute, 180 minute infusion

SMILES: CCCCC[C@H](O)CC[C@@H]1[C@H]2Cc3cccc(OCC(=O)OC)c3C[C@H]2C[C@H]1O [9-deoxy-2′,9α-methano-3-oxa-4,5,6-trinor-3,7-(1′,3′-interphenylene)-PGF1, methyl ester]
- blood pressure still lower after 52 min (rat; after 52 min): 14 mm
- lowered blood pressure (rat): 44 mmHg

SMILES: CCCCC[C@H](O)CC[C@@H]1[C@H]2Cc3cccc(OCC(=O)[O-])c3C[C@H]2C[C@H]1O.[Na+] [Treprostinil sodium]
- plasma half life [1]: more than 4 hours

SMILES: CCCCC[C@H](O)/C=C/C1C2COC(C2)C1C/C=C\CCCC(=O)O (stereo partly drawn) [U44069, 9,11-dideoxy,9α,11α-epoxymethanoprostaglandin F2α]
- PPA relative to baseline (sheep [2]): significantly increased
- PVR (sheep [2]): dramatic increase
- cardiac output relative to baseline (sheep [2]): decrease
- left atrial pressure (sheep [2]): did not alter
- duration of steady-state increase in PVR (sheep [3]; [4]): ≥ 180 min
- time for PVR to reach a steady-state increase (sheep [3]; [4]): ≤ 30 min
- cardiac output (CO) relative to baseline (sheep [3]; [5]): decreased
- heart rate (HR) relative to baseline (sheep [3]; [5]): decreased
- pulmonary arterial pressure (PPA) relative to baseline (sheep [3]; [5]): increased
- left atrial pressure (PLA) relative to baseline (sheep [3]; U44069 iv infusion, any time point): did not significantly change
- central venous pressure (PCV) relative to baseline (sheep [3]; U44069 iv infusion, significant only at 30 and 60 minutes): increased
- systemic arterial pressure (PSYS) relative to baseline (sheep [3]; U44069 iv infusion, statistically different only at 120, 150 and 180 minutes): increased above baseline values
